Values joined by “and” are separate entries in the source; they are usually repeats but may differ in a detail not shown here. Identical values can stand only once. Inconclusive results and toxic doses are left out.

For this assay, the system named is CD2F1 mice, L1210 leukemia ip, survival T/C. The assay is described as follows: NCI In Vivo Anticancer Drug Screen. Data for tumor model L1210 Leukemia (intraperitoneal) in CD2F1 (CDF1) mice. Conditions: higher = longer survival. The method in brief:
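Activity against a transplanted murine tumor was judged by comparing the compound group with a vehicle group. The outcome in the treated animals was divided by that in the controls.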

Setting [1] is: endpoint: mean survival time, dose: 100.0 mg/kg/injection, schedule: Q04DX003 (ip), vehicle: saline.
Where [2] appears, read: endpoint: mean survival time, dose: 200.0 mg/kg/injection, schedule: Q04DX003 (ip), vehicle: saline.
The mark [3] stands for this setting: endpoint: mean survival time, dose: 400.0 mg/kg/injection, schedule: Q04DX003 (ip), vehicle: saline.
[4] abbreviates: endpoint: mean survival time, dose: 100.0 mg/kg/injection, schedule: Q04DX003 (ip), vehicle: saline with Tween-80.
Setting [5] is: endpoint: mean survival time, dose: 200.0 mg/kg/injection, schedule: Q04DX003 (ip), vehicle: saline with Tween-80.
Setting [6] is: endpoint: mean survival time, dose: 400.0 mg/kg/injection, schedule: Q04DX003 (ip), vehicle: saline with Tween-80.
[7] abbreviates: endpoint: mean survival time, dose: 100.0 mg/kg/injection, schedule: Q01DX009 (ip), vehicle: saline with Tween-80.
The mark [8] stands for this setting: endpoint: mean survival time, dose: 200.0 mg/kg/injection, schedule: Q01DX009 (ip), vehicle: saline with Tween-80.
[9] abbreviates: endpoint: mean survival time, dose: 400.0 mg/kg/injection, schedule: Q01DX009 (ip), vehicle: saline with Tween-80.
[10] abbreviates: endpoint: mean survival time, dose: 75.0 mg/kg/injection, schedule: Q01DX001 (ip), vehicle: other.
Where [11] appears, read: endpoint: mean survival time, dose: 150.0 mg/kg/injection, schedule: Q01DX001 (ip), vehicle: other.
The mark [12] stands for this setting: endpoint: mean survival time, dose: 300.0 mg/kg/injection, schedule: Q01DX001 (ip), vehicle: other.
The mark [13] stands for this setting: endpoint: mean survival time, dose: 12.5 mg/kg/injection, schedule: Q01DX009 (ip), vehicle: saline with Tween-80.
Setting [14] is: endpoint: mean survival time, dose: 25.0 mg/kg/injection, schedule: Q01DX009 (ip), vehicle: saline with Tween-80.
Where [15] appears, read: endpoint: mean survival time, dose: 50.0 mg/kg/injection, schedule: Q01DX009 (ip), vehicle: saline with Tween-80.

For `CCOc1ccc2nc3cc(N)ccc3c(N)c2c1`, the T/C by setting is: (endpoint: mean survival time, dose: 25.0 mg/kg/injection, schedule: Q01DX009 (ip), vehicle: saline) 101 % of control; (endpoint: mean survival time, dose: 50.0 mg/kg/injection, schedule: Q01DX009 (ip), vehicle: saline) 113 % of control; (endpoint: mean survival time, dose: 100.0 mg/kg/injection, schedule: Q01DX009 (ip), vehicle: saline) 122 % of control and 101 % of control; under setting [1], 114 % of control; under setting [2], 105 % of control; under setting [3], 105 % of control.
Turning to `CCOC(=O)CNCC(O)C(Cl)(Cl)Cl` (configuration not stated), the T/C is, setting by setting: under setting [4], 102 % of control; under setting [5], 98 % of control; under setting [6], 96 % of control.
Consider `CC(N)(CO)C(=O)O` (configuration not stated), for which the T/C was 108 % of control under setting [1], 113 % of control under setting [2] and 103 % of control under setting [3].
As to `Oc1ccc(O)c(CCCCCc2cc(O)ccc2O)c1`, the T/C was 102 % of control (endpoint: mean survival time, dose: 100.0 mg/kg/injection, schedule: Q01DX009 (ip), vehicle: other) and 98 % of control (endpoint: mean survival time, dose: 200.0 mg/kg/injection, schedule: Q01DX009 (ip), vehicle: other).
In the case of `O=C(O)CN1C(=O)CNC12CCCCC2`, the T/C was 102 % of control (endpoint: mean survival time, dose: 100.0 mg/kg/injection, schedule: Q04DX003 (ip), vehicle: other); 88 % of control (endpoint: mean survival time, dose: 200.0 mg/kg/injection, schedule: Q04DX003 (ip), vehicle: other); 104 % of control (endpoint: mean survival time, dose: 400.0 mg/kg/injection, schedule: Q04DX003 (ip), vehicle: other).
`CNC(=S)N(C1CCCCC1)C1CCCCC1`: the T/C is 111 % of control under setting [4], 96 % of control under setting [5] and 94 % of control under setting [6].
For the compound `CCCCCCCC/C=C/CCCCCC1CCCC(C)N1` (configuration not stated), the T/C runs as follows: (endpoint: mean survival time, dose: 50.0 mg/kg/injection, schedule: Q04DX002 (ip), vehicle: saline with Tween-80) 98 % of control and 102 % of control; (endpoint: mean survival time, dose: 100.0 mg/kg/injection, schedule: Q04DX002 (ip), vehicle: saline with Tween-80) 94 % of control.
Regarding `Cc1c2ccccc2cc2c1ccc1ccccc12`, the T/C by setting is: (endpoint: mean survival time, dose: 9.0 mg/kg/injection, schedule: Q01DX009 (ip), vehicle: saline with Tween-80) 106 % of control; (endpoint: mean survival time, dose: 17.5 mg/kg/injection, schedule: Q01DX009 (ip), vehicle: saline with Tween-80) 108 % of control; (endpoint: mean survival time, dose: 35.0 mg/kg/injection, schedule: Q01DX009 (ip), vehicle: saline with Tween-80) 108 % of control; (endpoint: mean survival time, dose: 70.0 mg/kg/injection, schedule: Q01DX009 (ip), vehicle: saline with Tween-80) 103 % of control.
As to `CN(C)c1ccc(/C=N/NC(=O)c2ccccc2N)cc1`, the T/C under setting [7] is 92 % of control, the T/C under setting [8] is 91 % of control and the T/C under setting [9] was 91 % of control.
In the case of `COc1ccc(Cl)c2c1C1(CC(CC=O)C2)OCCO1` (configuration not stated), the T/C was 100 % of control under setting [10], 94 % of control under setting [11] and 94 % of control under setting [12].
With `CCCCCCCCC(=O)OCC1OC(n2cnc3c(N)nc(Cl)nc32)CC1O` (configuration not stated), the T/C runs as follows: (endpoint: median survival time, dose: 40.0 mg/kg/injection, schedule: Q01DX009 (ip), vehicle: saline with Tween-80) 161 % of control; (endpoint: median survival time, dose: 50.0 mg/kg/injection, schedule: Q01DX009 (ip), vehicle: saline with Tween-80) 344 % of control; (endpoint: median survival time, dose: 60.0 mg/kg/injection, schedule: Q01DX009 (ip), vehicle: saline with Tween-80) 177 % of control; (endpoint: median survival time, dose: 80.0 mg/kg/injection, schedule: Q01DX009 (ip), vehicle: saline with Tween-80) 97 % of control; (endpoint: median survival time, dose: 100.0 mg/kg/injection, schedule: Q01DX009 (ip), vehicle: saline with Tween-80) 102 % of control.
As to `CCCN(CCC)C(=O)[S-].CCCN(CCC)C(=O)[S-].[Ni+2]`, the T/C is 95 % of control (endpoint: mean survival time, dose: 6.25 mg/kg/injection, schedule: Q01DX009 (ip), vehicle: saline with Tween-80); 99 % of control (endpoint: mean survival time, dose: 6.25 mg/kg/injection, schedule: Q04DX003 (ip), vehicle: saline sonified); 106 % of control under setting [13]; 97 % of control (endpoint: mean survival time, dose: 12.5 mg/kg/injection, schedule: Q04DX003 (ip), vehicle: saline sonified); 106 % of control under setting [14]; 103 % of control (endpoint: mean survival time, dose: 25.0 mg/kg/injection, schedule: Q04DX003 (ip), vehicle: saline sonified).
Turning to `NC1CCCN(Cc2ccccc2)C1` (configuration not stated), the T/C reads like this: (endpoint: mean survival time, dose: 75.0 mg/kg/injection, schedule: Q01DX001 (ip), vehicle: saline) 95 % of control; (endpoint: mean survival time, dose: 150.0 mg/kg/injection, schedule: Q01DX001 (ip), vehicle: saline) 97 % of control; (endpoint: mean survival time, dose: 300.0 mg/kg/injection, schedule: Q01DX001 (ip), vehicle: saline) 97 % of control.
As to `CCC1=[N+](C)c2ccccc2C1(C)C`, under setting [1], the T/C was 104 % of control.
As to `CC(=O)c1ccco1`, the T/C is, setting by setting: under setting [13], 96 % of control; under setting [14], 95 % of control; (endpoint: mean survival time, dose: 25.0 mg/kg/injection, schedule: Q04DX003 (ip), vehicle: saline with Tween-80) 104 % of control; under setting [15], 98 % of control; (endpoint: mean survival time, dose: 50.0 mg/kg/injection, schedule: Q04DX003 (ip), vehicle: saline with Tween-80) 122 % of control.
For `O=c1[nH]c(=O)n(C2OC(CO)C(O)C2O)nc1SCc1ccccc1` (configuration not stated), the T/C is, setting by setting: (endpoint: mean survival time, dose: 12.5 mg/kg/injection, schedule: Q01DX005 (ip), vehicle: distilled water + Tween-80) 100 % of control; (endpoint: mean survival time, dose: 25.0 mg/kg/injection, schedule: Q01DX005 (ip), vehicle: distilled water + Tween-80) 97 % of control; (endpoint: mean survival time, dose: 50.0 mg/kg/injection, schedule: Q01DX005 (ip), vehicle: distilled water + Tween-80) 101 % of control; (endpoint: mean survival time, dose: 100.0 mg/kg/injection, schedule: Q01DX005 (ip), vehicle: distilled water + Tween-80) 97 % of control; (endpoint: mean survival time, dose: 200.0 mg/kg/injection, schedule: Q01DX005 (ip), vehicle: distilled water + Tween-80) 97 % of control.
In the case of `Nc1nc(N)c2nc(CCSc3ccc(C(=O)NC(CCC(=O)O)C(=O)O)cc3)cnc2n1` (configuration not stated), the T/C is 96 % of control (endpoint: mean survival time, dose: 0.38 mg/kg/injection, schedule: Q01DX009 (ip), vehicle: sodium bicarbonate); 100 % of control (endpoint: mean survival time, dose: 0.75 mg/kg/injection, schedule: Q01DX009 (ip), vehicle: sodium bicarbonate); 104 % of control (endpoint: mean survival time, dose: 1.5 mg/kg/injection, schedule: Q01DX009 (ip), vehicle: sodium bicarbonate); 95 % of control (endpoint: mean survival time, dose: 3.0 mg/kg/injection, schedule: Q01DX009 (ip), vehicle: sodium bicarbonate); 91 % of control (endpoint: mean survival time, dose: 6.0 mg/kg/injection, schedule: Q01DX009 (ip), vehicle: sodium bicarbonate); 93 % of control (endpoint: mean survival time, dose: 12.0 mg/kg/injection, schedule: Q01DX009 (ip), vehicle: sodium bicarbonate). Also, the T/C is 102 % of control (endpoint: mean survival time, dose: 24.0 mg/kg/injection, schedule: Q01DX009 (ip), vehicle: sodium bicarbonate) and 106 % of control (endpoint: mean survival time, dose: 48.0 mg/kg/injection, schedule: Q01DX009 (ip), vehicle: sodium bicarbonate).
Turning to `O=C(Nc1cc(C(F)(F)F)ccc1Cl)c1ccccc1Cl`, the T/C under setting [7] was 104 % of control; the T/C under setting [4] is 103 % of control; the T/C under setting [8] is 94 % of control; the T/C under setting [5] was 103 % of control; the T/C under setting [9] was 104 % of control; the T/C under setting [6] was 101 % of control.
Consider `C[N+](C)(C)CCS(=O)(=O)c1ccc(Cl)cc1`, for which the T/C is 90 % of control (endpoint: mean survival time, dose: 25.0 mg/kg/injection, schedule: Q04DX002 (ip), vehicle: saline); 94 % of control (endpoint: mean survival time, dose: 50.0 mg/kg/injection, schedule: Q04DX002 (ip), vehicle: saline); 86 % of control (endpoint: mean survival time, dose: 100.0 mg/kg/injection, schedule: Q04DX002 (ip), vehicle: saline).
As to `CC(C)[Si](F)(c1ccc(Br)cc1)C(C)C`, the T/C was 108 % of control under setting [4], 106 % of control under setting [5] and 93 % of control under setting [6].
`O=C1C=CC(=O)N1c1nccs1`: the T/C is 91 % of control under setting [7], 95 % of control under setting [8] and 95 % of control under setting [9].
Consider `O=C(O)c1c(F)cccc1F`, for which the T/C under setting [10] was 103 % of control, the T/C under setting [11] is 100 % of control and the T/C under setting [12] was 100 % of control.
Take `O=C(CC(O)(C(F)(F)F)C(F)(F)F)c1ccco1`: the T/C runs as follows: under setting [15], 116 % of control; under setting [7], 110 % of control; under setting [4], 105 % of control; under setting [5], 100 % of control.

For the origin of these results see PubChem BioAssay AID256 (DTP/NCI, 2004).
